Assay results taken from patent US11274078B2, “Drug for treating tumor diseases and having antibacterial antivirus anti-inflammatory effects” (priority 2017, dated 2022).

Tests used:
Assay type in all cases: cell-based
HCT-116 tumor cells = test: Cell proliferation inhibition assay (MTT), HCT-116; conditions: HCT-116 cells, 48 hours
Experimental: (§1) Case Study I: Antitumor Cell Activity of Naphthalene Diamides • Compounds of Tables 1 and 2 were synthesized in multiple steps according to the procedure of Examples 1-3 using relevant antitumor cell activity assays. The compound synthesized above was tested for IC50 concentration (MIC) against HCT-116, MCF-7, Calu-6 and A549 tumor cells by in vitro cellular activity.
(§2) Case Study II: Cell Proliferation Inhibition Assay • Based on MTT method, briefly plating HCT-116, MCF-7 and A549 cells in a concentration of 2×10^4/ml with complete culture medium in 96-well plates overnight. The volume for each well was 100 μL. Cells were treated with compounds in concentrations of 40, 20, 10, 5, 2.5, 1.25 μmol/L, and cultured at 37° C., 5% CO2 for 48 hours, followed by adding 20 μL of 5 mg/ml MTT reagent per well and continuing to culture for 2˜4 h, respectively. As a control, DMSO solvent was added in an equal volume with concentration of 0.1%. Each sample was tested as 5 replicate wells. Then the supernatant was discarded, and DMSO was added in a volume of 150 μL, followed by shaking and mixing for 15 mins. The absorbance (A) value (A value is proportional to the number of living cells) is measured by a microplate reader at the wavelength of 570 nm, and the average value is taken. The relative cell proliferation inhibition rate (%)=(control group A570—experimental group A570)/control group A570×100%. The concentration of 50% inhibition rate (IC50) of the compound was calculated by the repetition of at least 3 times. The positive control was used as 5-flucrouracil.

MCF-7 tumor cells = test: Cell proliferation inhibition assay (MTT), MCF-7; conditions: MCF-7 cells, 48 hours
Experimental: as §1, §2

Calu-6 tumor cells = test: In vitro antitumor cell activity, Calu-6; conditions: Calu-6 cells
Experimental: as §1, §2

A549 tumor cells = test: Cell proliferation inhibition assay (MTT), A549; conditions: 48 hours
Experimental: as §1, §2

| SMILES | IC50 (HCT-116 tumor cells) [µM] | IC50 (MCF-7 tumor cells) [µM] | IC50 (Calu-6 tumor cells) [µM] | IC50 (A549 tumor cells) [µM] |
| --- | --- | --- | --- | --- |
| COc1ccc(C(=O)Nc2ccc3cc(C(=O)NC4CC4)ccc3c2)cc1 [ABC-27] | 38.8 | 2.65 | – | – |
| O=C(Nc1ccc2cc(C(=O)NC3CC3)ccc2c1)c1cccc(Cl)c1 [ABC-43] | – | – | 25.3 | 25.2 |
| O=C(Nc1ccc2cc(C(=O)NC3CC3)ccc2c1)c1cccc(C(F)(F)F)c1 [ABC-28] | 5 | – | – | – |
| COc1ccc(C(=O)Nc2ccc3cc(C(=O)Nc4cccc(C(F)(F)F)c4)ccc3c2)cc1 [ABC-33] | 3 | 6.6 | – | – |
| CC(C)NC(=O)c1ccc2cc(NC(=O)c3ccc(Cl)c(Cl)c3)ccc2c1 [ABC-48] | 3.9 | – | – | 12.6 |
| O=C(NCc1ccc(Cl)nc1)c1ccc2cc(NC(=O)c3ccc(F)cc3)ccc2c1 [ABC-07] | 5.8 | 7.6 | – | – |
| COc1ccc(C(=O)Nc2ccc3cc(C(=O)NC(C)C)ccc3c2)cc1 [ABC-29] | 8 | – | – | – |
| O=C(Nc1ccc2cc(C(=O)Nc3nccs3)ccc2c1)c1cccc(Cl)c1 [ABC-45] | 10 | 6.7 | 12.6 | 4.3 |
| O=C(Nc1ccc2cc(C(=O)NC3CCCCC3)ccc2c1)c1cccc(C(F)(F)F)c1 [ABC-24] | 5 | – | – | – |
| O=C(Nc1ccc2cc(C(=O)Nc3nccs3)ccc2c1)c1cccc(C(F)(F)F)c1 [ABC-34] | 5.2 | 1.6 | – | – |
| Cc1cccc(C(=O)Nc2ccc3cc(C(=O)NCc4ccc(Cl)nc4)ccc3c2)c1 [ABC-09] | 3.5 | 3.2 | – | – |
| COc1ccccc1C(=O)Nc1ccc2cc(C(=O)NC(C)C)ccc2c1 [ABC-38] | 5 | 9 | – | – |
| Cc1cccc(C(=O)Nc2ccc3cc(C(=O)Nc4nccs4)ccc3c2)c1 [ABC-32] | 5.5 | 2.9 | 28.1 | 14.2 |
| CN1CCN(C(=O)c2ccc3cc(NC(=O)c4ccc(Cl)c(Cl)c4)ccc3c2)CC1 [ABC-42] | 20 | – | 7.1 | 3.7 |
| O=C(Nc1ccc2cc(C(=O)N3CCOCC3)ccc2c1)c1ccc(F)cc1 [ABC-11] | 5.5 | 3.7 | – | 28.1 |
| O=C(Nc1ccc2cc(C(=O)N3CCOCC3)ccc2c1)c1ccc(Cl)c(Cl)c1 [ABC-40] | – | – | 12.4 | – |
| Cc1cccc(C(=O)Nc2ccc3cc(C(=O)N4CCN(C)CC4)ccc3c2)c1 [ABC-05] | 10 | – | – | – |
| COc1ccc(C(=O)Nc2ccc3cc(C(=O)Nc4nccs4)ccc3c2)cc1 [ABC-31] | – | 3.9 | – | – |
| O=C(Nc1ccc2cc(C(=O)Nc3nccs3)ccc2c1)c1ccc(Cl)c(Cl)c1 [ABC-46] | 2 | 6.2 | – | 1.6 |
| COc1ccc(OC)c(C(=O)Nc2ccc3cc(C(=O)NCc4ccc(Cl)nc4)ccc3c2)c1 [ABC-15] | 6.6 | 3.5 | – | – |
| O=C(NCc1ccc(Cl)nc1)c1ccc2cc(NC(=O)c3cccc(C(F)(F)F)c3)ccc2c1 [ABC-17] | 3.6 | 3.2 | – | – |
| O=C(Nc1ccc2cc(C(=O)Nc3nccs3)ccc2c1)c1ccc(F)cc1 [ABC-02] | 10 | – | – | – |
| O=C(Nc1ccc2cc(C(=O)NC3CC3)ccc2c1)c1ccc(F)cc1 [ABC-21] | – | – | 48.5 | 48.5 |
| CC(C)NC(=O)c1ccc2cc(NC(=O)c3cccc(Cl)c3)ccc2c1 [ABC-47] | 2.5 | – | – | 12.4 |
| O=C(Nc1ccc2cc(C(=O)NC3CC3)ccc2c1)c1ccc(Cl)c(Cl)c1 [ABC-44] | – | – | 5.5 | – |
| CN1CCN(C(=O)c2ccc3cc(NC(=O)c4cccc(C(F)(F)F)c4)ccc3c2)CC1 [ABC-20] | 24.9 | 2.7 | – | – |
| O=C(Nc1ccc2cc(C(=O)Nc3cccc(C(F)(F)F)c3)ccc2c1)c1cccc(C(F)(F)F)c1 [ABC-26] | 3.5 | – | – | – |
